Test results published in ChEMBL document CHEMBL6078726, “Synthesis and in vitro evaluation of novel compounds and discovery of a promising iodine-125 radioligand for purinergic P2X7 receptor (P2X7R)” (Bioorg Med Chem, 2025).
Active and inactive are the calls of the source. The rule behind the calls is not given here.

Columns and labels:
[1] = target: T1, P2X purinoceptor 7 (Homo sapiens) (UniProt Q99572); assay: Binding affinity to human P2X7 receptor expressed in HEK293 cell membrane assessed as inhibition of [125I]-4-(1-(1-(4-iodobenzoyl)piperidin-4-yl)-1H-imidazol-5-yl)phenyl isoquinoline-5-sulfonate binding to receptor at 1 uM incubated for 60 mins by high throughput screening relative to control; format: cell membranes
T1 sequence (whole entry): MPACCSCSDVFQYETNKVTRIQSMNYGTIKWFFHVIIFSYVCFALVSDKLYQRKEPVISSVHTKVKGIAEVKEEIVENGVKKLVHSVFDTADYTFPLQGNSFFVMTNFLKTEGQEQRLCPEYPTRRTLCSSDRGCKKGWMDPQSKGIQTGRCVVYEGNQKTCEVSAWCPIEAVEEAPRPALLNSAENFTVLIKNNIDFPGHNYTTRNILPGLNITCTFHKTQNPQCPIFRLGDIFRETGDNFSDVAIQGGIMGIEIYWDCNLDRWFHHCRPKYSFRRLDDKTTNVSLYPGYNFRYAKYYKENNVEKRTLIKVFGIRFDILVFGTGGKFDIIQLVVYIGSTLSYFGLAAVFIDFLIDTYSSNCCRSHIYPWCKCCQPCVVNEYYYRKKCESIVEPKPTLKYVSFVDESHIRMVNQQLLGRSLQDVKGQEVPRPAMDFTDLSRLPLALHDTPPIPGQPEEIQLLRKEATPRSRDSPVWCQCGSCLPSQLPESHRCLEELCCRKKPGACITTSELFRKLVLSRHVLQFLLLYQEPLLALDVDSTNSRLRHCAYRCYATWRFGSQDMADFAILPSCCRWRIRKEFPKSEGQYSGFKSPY

P2X purinoceptor 7 [2] = target: T2, P2X purinoceptor 7 (Homo sapiens, UniProt Q99572); assay: Binding affinity to human P2X7 receptor expressed in HEK293 cell membrane incubated for 60 mins in presence of [125I]-4-(1-(1-(4-iodobenzoyl)piperidin-4-yl)-1H-imidazol-5-yl)phenyl isoquinoline-5-sulfonate by competitive binding assay; format: cell membranes
T2 sequence (Q99572 whole entry): T1 sequence (whole entry)

P2X purinoceptor 7 [3] = target: T2, P2X purinoceptor 7; assay: Antagonist activity at human P2X7 receptor expressed in HEK293 cells assessed as inhibition of BzATP-induced increase in fluorescence preincubated for 30 mins followed by BzATP addition and measured after 15 mins by YO-PRO-1 based inverted fluorescence microscopic analysis; format: cell-based
[4] = target: T1, P2X purinoceptor 7 (Homo sapiens); assay: Antagonist activity at human P2X7 receptor expressed in HEK293 cells assessed as inhibition of BzATP-induced increase in fluorescence at 1 uM preincubated for 30 mins followed by BzATP addition and measured after 15 mins by YO-PRO-1 based inverted fluorescence microscopic analysis; format: cell-based; conditions: filed as antagonist, time 45.0 min
[5] = target: T1, P2X purinoceptor 7 (Homo sapiens); assay: Antagonist activity at human P2X7 receptor expressed in HEK293 cells assessed as inhibition of BzATP-induced inward current at 300 nM preincubated with compound for 3 mins followed by BzATP addition and measured after 25 mins of washout by whole-cell voltage clamp method; format: cell-based; conditions: filed as antagonist, time 28.0 min
[6] = target: T3, P2X purinoceptor 2 (Rattus norvegicus) (UniProt P49653); assay: Antagonist activity at rat P2X2 receptor expressed in HEK293 cells assessed as inhibition of BzATP-induced inward current at 1 uM by whole-cell voltage clamp method; format: cell-based
T3 sequence (whole entry): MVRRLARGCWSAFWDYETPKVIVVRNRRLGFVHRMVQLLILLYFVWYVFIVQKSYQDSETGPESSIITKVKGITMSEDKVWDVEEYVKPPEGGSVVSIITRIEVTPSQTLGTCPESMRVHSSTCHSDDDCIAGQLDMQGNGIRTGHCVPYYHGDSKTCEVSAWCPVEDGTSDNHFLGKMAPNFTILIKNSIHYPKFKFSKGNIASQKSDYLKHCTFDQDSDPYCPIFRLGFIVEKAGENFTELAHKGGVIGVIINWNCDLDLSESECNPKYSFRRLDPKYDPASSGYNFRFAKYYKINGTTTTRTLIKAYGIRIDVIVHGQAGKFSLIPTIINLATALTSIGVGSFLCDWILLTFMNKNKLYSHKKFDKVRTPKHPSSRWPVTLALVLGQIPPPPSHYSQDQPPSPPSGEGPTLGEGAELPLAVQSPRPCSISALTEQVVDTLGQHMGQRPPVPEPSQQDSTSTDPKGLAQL

[7] = target: T1, P2X purinoceptor 7 (Homo sapiens); assay: Antagonist activity at human P2X7 receptor expressed in HEK293 cells assessed as inhibition of BzATP-induced inward current at 300 nM preincubated with compound for 3 mins followed by BzATP addition by whole-cell voltage clamp method; format: cell-based; set-up: scale not given: the % may be the effect or the level left; conditions: filed as antagonist

Structure (SMILES) | IC50 (P2X purinoceptor 7 [3]) [µM] | inhibition [1] [%] | other results
O=C(c1ccc([N+](=O)[O-])cc1)N1CCC(n2cncc2-c2ccc(OS(=O)(=O)c3cccc4cnccc34)cc2)CC1 |  |  | inhibition ([1]; filed as antagonist): 74%; IC50 (P2X purinoceptor 7 [2]): 0.00791 µM
COc1ccc(Cl)c(C(=O)NNC(=O)c2cccc3ncccc23)c1 | > 1 | < 35 | 
O=C(c1ccc(Br)cc1)N1CCC(n2cncc2-c2ccc(OS(=O)(=O)c3cccc4cnccc34)cc2)CC1 |  |  | inhibition ([1]; filed as antagonist): 71%; IC50 (P2X purinoceptor 7 [2]): 0.00716 µM
O=C(NCc1cccc(C(F)(F)F)c1Cl)[C@@H]1CCC(=O)N1C/C=C/I |  | 45 | 
COc1ccc(C(=O)Nc2ccc(Cl)c(C(=O)OCc3cccc4cnccc34)c2)nc1 | > 1 | < 35 | 
O=C(NCc1cccc2cnccc12)c1cc(O)ccc1Cl | > 1 | < 35 | 
COc1ccc(Cl)c(C(=O)NNC(=O)[C@H]2CC[C@H](C(F)(F)F)CC2)c1 | > 1 | < 35 | 
O=C(OCc1cccc2cnccc12)c1cc(NC(=O)[C@H]2CCCN2)ccc1Cl | > 1 | < 35 | 

Continued, in another order:

IC50 (P2X purinoceptor 7 [3]) [µM] | inhibition [1] [%] | Structure (SMILES) | other results
> 1 | < 35 | CNCC(=O)Nc1ccc(Cl)c(C(=O)NCc2cccc3cnccc23)c1 | 
> 1 | < 35 | NCC(=O)Nc1ccc(Cl)c(C(=O)OCc2cccc3cnccc23)c1 | 
0.00025 |  | O=C(c1ccc(I)cc1)N1CCC(n2cncc2-c2ccc(OS(=O)(=O)c3cccc4cnccc34)cc2)CC1 | Activity [4]: Active; Activity [5]: Active; Activity [6]: inactive; inhibition ([1]; filed as antagonist): 76%; Activity [7]: 100%
> 1 | < 35 | O=C1CNC(C(=O)Nc2ccc(Cl)c(C(=O)NCc3cccc4cnccc34)c2)CN1 (stereo unspecified) | 
> 1 | < 35 | O=C(NCc1cccc2cnccc12)c1cc(OCCF)ccc1Cl | 
> 1 | < 35 | COc1ccc(Cl)c(C(=O)NCc2cccc3cnccc23)c1 | 
